In PubChem BioAssay AID330 (DTP/NCI, 2004) one finds T/C data, which are given here for 21 compounds.

The experiment has as its system P388 leukemia ip, CD2F1 mice, survival T/C. Nature of the experiment: NCI In Vivo Anticancer Drug Screen. Data for tumor model P388 Leukemia (intraperitoneal) in CD2F1 (CDF1) mice. Conditions: endpoint: median survival time, higher = longer survival. In short, it runs like this:
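Mice carrying the transplanted tumor received test compound or vehicle. Survival was recorded in each group, and the value is the treated-group measurement divided by that of the vehicle-treated control group.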

Where [1] appears, read: dose: 60.0 mg/kg/injection, schedule: Q01DX005 (ip), vehicle: Klucel (hydroxypropylcellulose) (HPC).
Setting [2] is: dose: 120.0 mg/kg/injection, schedule: Q01DX005 (ip), vehicle: Klucel (hydroxypropylcellulose) (HPC).
[3] abbreviates: dose: 240.0 mg/kg/injection, schedule: Q01DX005 (ip), vehicle: Klucel (hydroxypropylcellulose) (HPC).
Setting [4] is: dose: 20.0 mg/kg/injection, schedule: Q01DX009 (ip), vehicle: saline with Tween-80.
Setting [5] is: dose: 50.0 mg/kg/injection, schedule: Q01DX009 (ip), vehicle: saline with Tween-80.
The mark [6] stands for this setting: dose: 100.0 mg/kg/injection, schedule: Q01DX009 (ip), vehicle: saline with Tween-80.
Setting [7] is: dose: 200.0 mg/kg/injection, schedule: Q01DX009 (ip), vehicle: saline with Tween-80.
[8] abbreviates: dose: 100.0 mg/kg/injection, schedule: Q04DX003 (ip), vehicle: saline with Tween-80.
Setting [9] is: dose: 200.0 mg/kg/injection, schedule: Q04DX003 (ip), vehicle: saline with Tween-80.
The mark [10] stands for this setting: dose: 10.0 mg/kg/injection, schedule: Q01DX009 (ip), vehicle: saline with Tween-80.
Where [11] appears, read: dose: 100.0 mg/kg/injection, schedule: Q01DX009 (ip), vehicle: Klucel (hydroxypropylcellulose) (HPC).
Setting [12] is: dose: 200.0 mg/kg/injection, schedule: Q01DX009 (ip), vehicle: Klucel (hydroxypropylcellulose) (HPC).

Molecules are shown by their SMILES. Several values for one entry are separate records, joined by “and”; a condition that tells them apart may be missing. Identical values can stand only once. Toxic doses and inconclusive results are not listed.

Turning to `O=c1[nH]c2cc(Cl)ccc2nc1/C=C(\O)c1cccc([N+](=O)[O-])c1`, the T/C is 102 % of control under setting [1], 97 % of control under setting [2] and 101 % of control under setting [3].

Consider `CN(C)[C@@H]1C(=O)C(C(N)=O)=C(O)[C@]2(O)C(=O)C3C(=O)c4c(O)ccc(Cl)c4[C@](C)(O)[C@H]3C[C@@H]12` (stereo partly drawn), for which the T/C is, setting by setting: (dose: 8.8 mg/kg/injection, schedule: Q01DX009 (ip), vehicle: saline with Tween-80) 109 % of control; (dose: 13.3 mg/kg/injection, schedule: Q01DX009 (ip), vehicle: saline with Tween-80) 100 % of control; under setting [4], 109 % of control; (dose: 30.0 mg/kg/injection, schedule: Q01DX009 (ip), vehicle: saline with Tween-80) 118 % of control.

As for `C1CCN(c2c3c(nc4nnnn24)CCC3)CC1`, the T/C (dose: 50.0 mg/kg/injection, schedule: Q01DX009 (ip), vehicle: saline) was 96 % of control; the T/C (dose: 100.0 mg/kg/injection, schedule: Q01DX009 (ip), vehicle: saline) was 87 % of control; the T/C (dose: 200.0 mg/kg/injection, schedule: Q01DX009 (ip), vehicle: saline) was 90 % of control.

As to `Cc1ccc(C(=O)Cc2ccc(C#N)cc2)cc1`, the T/C runs as follows: (dose: 25.0 mg/kg/injection, schedule: Q01DX009 (ip), vehicle: saline with Tween-80) 99 % of control; under setting [5], 118 % of control; under setting [6], 108 % of control; under setting [7], 99 % of control.

Consider `CCOC(=O)c1cnc2cc3c(cc2c1Nc1cccc(C(F)(F)F)c1)OCO3`, for which the T/C reads like this: under setting [1], 96 % of control; under setting [2], 102 % of control; under setting [3], 101 % of control.

For the compound `Nc1nc2c(c(=O)[nH]1)NC(CN(C=O)c1ccc(C(=O)NC(CCC(=O)O)C(=O)O)cc1)CC2` (stereo not drawn), the T/C reads like this: (dose: 50.0 mg/kg/injection, schedule: Q01DX001 (ip), vehicle: saline) 99 % of control; (dose: 100.0 mg/kg/injection, schedule: Q01DX001 (ip), vehicle: saline) 100 % of control; (dose: 200.0 mg/kg/injection, schedule: Q01DX001 (ip), vehicle: saline) 91 % of control.

Regarding `COC(=O)CCN(CCC(=O)OC)Cc1ccccc1`, the T/C reads like this: (dose: 50.0 mg/kg/injection, schedule: Q04DX003 (ip), vehicle: saline with Tween-80) 101 % of control; under setting [8], 100 % of control; under setting [9], 100 % of control.

As to `CCCCCCCCCCCCCCCC[N+]1(CCCCCCCCCCCC)CCSCC1` (tested in a mixture with another compound), the T/C under setting [10] is 112 % of control and the T/C (dose: 40.0 mg/kg/injection, schedule: Q01DX009 (ip), vehicle: saline with Tween-80) is 121 % of control.

Regarding `CCCCC[P+](c1ccccc1)(c1ccccc1)c1ccccc1`, the T/C is 105 % of control (dose: 1.56 mg/kg/injection, schedule: Q01DX009 (ip), vehicle: Klucel (hydroxypropylcellulose) (HPC)); 111 % of control (dose: 3.12 mg/kg/injection, schedule: Q01DX009 (ip), vehicle: Klucel (hydroxypropylcellulose) (HPC)); 121 % of control (dose: 3.13 mg/kg/injection, schedule: Q01DX009 (ip), vehicle: Klucel (hydroxypropylcellulose) (HPC)); 121 % of control (dose: 6.25 mg/kg/injection, schedule: Q01DX009 (ip), vehicle: Klucel (hydroxypropylcellulose) (HPC)); 93 % of control (dose: 12.5 mg/kg/injection, schedule: Q01DX009 (ip), vehicle: Klucel (hydroxypropylcellulose) (HPC)); 100 % of control (dose: 25.0 mg/kg/injection, schedule: Q01DX009 (ip), vehicle: Klucel (hydroxypropylcellulose) (HPC)).

As to `C/C(Br)=C(\C(=O)O)S(=O)(=O)O`, the T/C by setting is: (dose: 5.0 mg/kg/injection, schedule: Q01DX009 (ip), vehicle: saline with Tween-80) 106 % of control; under setting [10], 97 % of control; under setting [4], 99 % of control.

As for `CC(C)NC(=O)OCc1c(COC(=O)NC(C)C)c(-c2ccc(F)c(F)c2)n2c1CCC2`, the T/C by setting is: (dose: 3.13 mg/kg/injection, schedule: Q01DX009 (ip), vehicle: distilled water + Tween-80) 151 % of control; (dose: 6.25 mg/kg/injection, schedule: Q01DX009 (ip), vehicle: distilled water + Tween-80) 160 % of control; (dose: 12.5 mg/kg/injection, schedule: Q01DX009 (ip), vehicle: distilled water + Tween-80) 172 % of control and 178 % of control; (dose: 25.0 mg/kg/injection, schedule: Q01DX009 (ip), vehicle: distilled water + Tween-80) 123 % of control and 211 % of control; (dose: 50.0 mg/kg/injection, schedule: Q01DX009 (ip), vehicle: distilled water + Tween-80) 109 % of control and 92 % of control.

For `COC(=O)C(CSCc1ccccc1)NC(=O)c1csc(CCNC(=O)c2ccccc2)n1` (stereo not drawn), the T/C is 99 % of control (dose: 12.5 mg/kg/injection, schedule: Q01DX009 (ip), vehicle: DMSO); 99 % of control (dose: 25.0 mg/kg/injection, schedule: Q01DX009 (ip), vehicle: DMSO); 100 % of control (dose: 50.0 mg/kg/injection, schedule: Q01DX009 (ip), vehicle: DMSO); 101 % of control (dose: 100.0 mg/kg/injection, schedule: Q01DX009 (ip), vehicle: DMSO); 96 % of control (dose: 200.0 mg/kg/injection, schedule: Q01DX009 (ip), vehicle: DMSO).

`O=S(=O)(OCC(COS(=O)(=O)c1ccccc1)(OS(=O)(=O)c1ccccc1)OS(=O)(=O)c1ccccc1)c1ccccc1`: the T/C by setting is: under setting [11], 105 % of control; under setting [12], 104 % of control; (dose: 400.0 mg/kg/injection, schedule: Q01DX009 (ip), vehicle: Klucel (hydroxypropylcellulose) (HPC)) 100 % of control.

Turning to `CN(C(=O)C1CC1)c1ccccc1`, the T/C is 105 % of control under setting [5] and 107 % of control under setting [6].

Consider `CC1=CC(=O)C(C(C)C)=CC1=O`, for which the T/C reads like this: (dose: 0.75 mg/kg/injection, schedule: Q01DX009 (ip), vehicle: saline with Tween-80) 100 % of control; (dose: 1.5 mg/kg/injection, schedule: Q01DX009 (ip), vehicle: saline with Tween-80) 104 % of control; (dose: 3.0 mg/kg/injection, schedule: Q01DX009 (ip), vehicle: saline with Tween-80) 104 % of control.

Consider `O=[N+]([O-])c1ccc(S/N=C\c2ccccc2)c([N+](=O)[O-])c1`, for which the T/C under setting [5] was 97 % of control.

For the compound `CSc1cccc(NC(=O)OC2CCCCCCCCCCC2)c1`, the T/C runs as follows: under setting [5], 89 % of control; under setting [6], 89 % of control; under setting [7], 92 % of control.

Turning to `COC(=O)c1c2c(nc3ccccc13)-c1ccccc1C(C)(C)C2`, the T/C (dose: 50.0 mg/kg/injection, schedule: Q01DX005 (ip), vehicle: Klucel (hydroxypropylcellulose) (HPC)) is 92 % of control; the T/C (dose: 100.0 mg/kg/injection, schedule: Q01DX005 (ip), vehicle: Klucel (hydroxypropylcellulose) (HPC)) is 95 % of control; the T/C (dose: 200.0 mg/kg/injection, schedule: Q01DX005 (ip), vehicle: Klucel (hydroxypropylcellulose) (HPC)) was 96 % of control.

In the case of `O=C(N/N=C/c1ccccc1O)C(O)(c1ccccc1)c1ccccc1`, the T/C by setting is: under setting [8], 107 % of control; under setting [9], 101 % of control; (dose: 400.0 mg/kg/injection, schedule: Q04DX003 (ip), vehicle: saline with Tween-80) 92 % of control.

As for `CSc1nc(N)c(C(=O)N(c2ccccc2)c2ccccc2)s1`, the T/C is, setting by setting: (dose: 50.0 mg/kg/injection, schedule: Q01DX009 (ip), vehicle: Klucel (hydroxypropylcellulose) (HPC)) 100 % of control; under setting [11], 108 % of control; under setting [12], 98 % of control.

Regarding `CCOc1ccc(S(=O)(=O)c2ccc(C)cc2)c2c1no[n+]2[O-]`, the T/C reads like this: (dose: 3.75 mg/kg/injection, schedule: Q01DX009 (ip), vehicle: saline with Tween-80) 101 % of control; (dose: 7.5 mg/kg/injection, schedule: Q01DX009 (ip), vehicle: saline with Tween-80) 99 % of control and 95 % of control; (dose: 15.0 mg/kg/injection, schedule: Q01DX009 (ip), vehicle: saline with Tween-80) 107 % of control.
